In ChEMBL document CHEMBL1150557, “Molecular design of novel PGI2 agonists without PG skeleton. I” (Bioorg Med Chem Lett, 1995):

Assays:
Prostacyclin receptor = Prostacyclin receptor (Homo sapiens, UniProt P43119); assay: Prostaglandin I2 receptor binding by displacement of [3H]iloprost from human platelets
Homo sapiens = species: Homo sapiens; assay: Evaluated for inhibition of 4 uM ADP-induced human platelet aggregation; assay type: functional, organism-based

Chain of Prostacyclin receptor (P43119 whole entry): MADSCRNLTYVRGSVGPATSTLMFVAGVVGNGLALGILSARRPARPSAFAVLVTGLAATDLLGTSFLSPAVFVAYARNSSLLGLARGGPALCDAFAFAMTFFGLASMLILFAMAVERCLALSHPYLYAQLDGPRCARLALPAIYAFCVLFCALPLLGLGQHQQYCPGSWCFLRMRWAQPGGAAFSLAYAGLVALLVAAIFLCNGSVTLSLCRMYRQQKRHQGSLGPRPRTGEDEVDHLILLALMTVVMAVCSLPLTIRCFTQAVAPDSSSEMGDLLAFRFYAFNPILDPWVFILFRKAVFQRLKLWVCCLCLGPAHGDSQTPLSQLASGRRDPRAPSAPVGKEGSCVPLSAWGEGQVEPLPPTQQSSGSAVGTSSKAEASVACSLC

SMILES	IC50 (Prostacyclin receptor)	IC50 (Homo sapiens)
O=C(O)COc1cccc(CCC/C=N/OC(c2ccccc2)c2ccccc2)c1	3.9 µM	–
CCCCCC(O)/C=C/CCCc1cccc(OCC(=O)O)c1 (configuration not stated)	23 µM	–
CCCCCC(O)/C=C/CCC1CCCc2c(OCC(=O)O)cccc21 (configuration not stated)	9.6 µM	–
O=C(O)COc1cccc2c1CCC(C/C=C\CC(c1ccccc1)c1ccccc1)C2 (configuration not stated)	3 µM	–
O=C(O)COc1cccc2c1CCCC2CC/C=N/OC(c1ccccc1)c1ccccc1 (configuration not stated)	0.6 µM	2.1 µM
O=C(O)COc1cccc2c1CCC(C/C=C/C(O)Cc1ccccc1)C2 (configuration not stated)	4.9 µM	–
CCCCCC(O)/C=C/CC1CCc2c(cccc2OCC(=O)O)C1 (configuration not stated)	7.8 µM	–
O=C(O)COc1cccc2c1CCC(C/C=N/OC(c1ccccc1)c1ccccc1)C2 (configuration not stated)	0.65 µM	1.1 µM
O=C(O)COc1cccc2c1CCC(C/C=C/CC(c1ccccc1)c1ccccc1)C2 (configuration not stated)	3.1 µM	–
O=C(O)COc1cccc2c1CCC(C/C=C/CCc1ccccc1)C2 (configuration not stated)	5.3 µM	–
